# From ChEMBL document CHEMBL4477259, “Discovery and structure-activity relationships of a novel isothiazolone class of bacterial type II topoisomerase inhibitors” (Bioorg Med Chem Lett, 2016)
# pIC50: −log10 of the molar value.
# Key:
# [1] = test system: Klebsiella pneumoniae; assay: Antibacterial activity against Klebsiella pneumoniae ATCC 700603; type: functional
# [2] = test system: Pseudomonas aeruginosa; assay: Antibacterial activity against Pseudomonas aeruginosa ATCC 27853; type: functional
# [3] = test system: Staphylococcus aureus; assay: Antibacterial activity against Staphylococcus aureus ATCC 29213; type: functional
# [4] = test system: HepG2; assay: Cytotoxicity against human HepG2 cells after 24 hrs by cell titre-glo assay; type: cell-based; details: HepG2, 24 h
# [5] = test system: Escherichia coli; assay: Antibacterial activity against Escherichia coli LM705 harboring GyrA S83L/D87N double mutant/ParC S80I mutant/delta marR/delta acrR double mutant; type: functional
# [6] = test system: Escherichia coli; assay: Antibacterial activity against Escherichia coli CH440 harboring GyrA S83L/D87N double mutant/ParC S80I E84V double mutant/aac(6')-lb-cr; type: functional
# [7] = test system: Escherichia coli; assay: Antibacterial activity against Escherichia coli CH460 harboring GyrA S83L/D87N double mutant/ParC S80I E84V double mutant/qepA; type: functional
# [8] = test system: Escherichia coli; assay: Antibacterial activity against Escherichia coli CH418 harboring GyrA S83L/D87N double mutant/ParC S80I E84G double mutant/qnrA; type: functional
# [9] = test system: Acinetobacter baumannii; assay: Antibacterial activity against Acinetobacter baumannii NCTC 13420; type: functional
# [10] = test system: Escherichia coli; assay: Antibacterial activity against Escherichia coli W4573; type: functional
# [11] = test system: Escherichia coli; assay: Antibacterial activity against Escherichia coli N43; type: functional
# [12] = n-octanol/phosphate buffer partition coefficient, log D of compound at pH 7.4 by shake-flask assay; type: physicochemical
# [13] = molecular target: hERG (KCNH2) (Homo sapiens, UniProt Q12809); assay: Inhibition of human ERG channel at 100 uM by automated patch clamp assay
# hERG (KCNH2), sequence (Q12809 whole entry): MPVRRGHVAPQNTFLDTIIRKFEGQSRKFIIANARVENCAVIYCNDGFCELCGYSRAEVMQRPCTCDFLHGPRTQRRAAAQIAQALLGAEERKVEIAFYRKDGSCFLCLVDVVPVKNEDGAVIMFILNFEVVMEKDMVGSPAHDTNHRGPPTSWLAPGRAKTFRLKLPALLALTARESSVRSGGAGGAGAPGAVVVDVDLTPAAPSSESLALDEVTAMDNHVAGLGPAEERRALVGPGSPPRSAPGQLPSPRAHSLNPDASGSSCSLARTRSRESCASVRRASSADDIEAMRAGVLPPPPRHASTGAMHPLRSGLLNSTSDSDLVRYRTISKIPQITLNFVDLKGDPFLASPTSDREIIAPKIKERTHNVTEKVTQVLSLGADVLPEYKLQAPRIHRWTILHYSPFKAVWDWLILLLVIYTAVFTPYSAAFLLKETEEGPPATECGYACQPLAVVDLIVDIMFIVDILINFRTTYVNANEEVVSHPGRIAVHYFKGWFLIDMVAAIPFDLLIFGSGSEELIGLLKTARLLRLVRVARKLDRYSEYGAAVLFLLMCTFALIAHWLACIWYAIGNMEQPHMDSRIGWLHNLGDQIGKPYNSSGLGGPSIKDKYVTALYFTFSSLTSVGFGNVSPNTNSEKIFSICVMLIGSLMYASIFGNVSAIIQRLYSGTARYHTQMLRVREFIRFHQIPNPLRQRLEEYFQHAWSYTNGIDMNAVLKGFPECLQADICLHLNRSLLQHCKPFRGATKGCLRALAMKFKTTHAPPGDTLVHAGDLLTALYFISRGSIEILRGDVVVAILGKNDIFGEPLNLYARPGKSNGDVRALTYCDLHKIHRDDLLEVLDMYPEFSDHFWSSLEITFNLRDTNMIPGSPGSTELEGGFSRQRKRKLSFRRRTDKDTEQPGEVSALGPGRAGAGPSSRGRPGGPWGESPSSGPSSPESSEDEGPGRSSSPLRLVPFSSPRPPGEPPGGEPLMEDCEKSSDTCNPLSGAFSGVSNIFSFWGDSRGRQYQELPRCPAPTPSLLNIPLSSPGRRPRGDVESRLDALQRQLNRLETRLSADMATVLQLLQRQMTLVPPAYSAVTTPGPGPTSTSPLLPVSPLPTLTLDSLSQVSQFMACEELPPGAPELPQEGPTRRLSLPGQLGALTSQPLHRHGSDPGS
# [14] = test system: Escherichia coli; assay: Antibacterial activity against wild type Escherichia coli LM179; type: functional
# [15] = test system: Escherichia coli; assay: Antibacterial activity against Escherichia coli LM625 harboring GyrA S83L/D87N double mutant; type: functional
# [16] = molecular target: Voltage-gated inwardly rectifying potassium channel KCNH2 (Homo sapiens, UniProt Q12809); assay: Inhibition of human ERG channel by automated patch clamp assay
# Voltage-gated inwardly rectifying potassium channel KCNH2, sequence (Q12809 whole entry): as above
# [17] = test system: Escherichia coli; assay: Antibacterial activity against Escherichia coli LM367 harboring delta marR/delta acrR double mutant; type: functional
# [18] = test system: Escherichia coli; assay: Antibacterial activity against Escherichia coli LM693 harboring GyrA S83L/D87N double mutant/ParC S80I mutant; type: functional
# [19] = test system: Escherichia coli; assay: Antibacterial activity against Escherichia coli CH448 harboring GyrA S83L mutant/qnrS; type: functional
# [20] = test system: Escherichia coli; assay: Selectivity ratio of MIC for Escherichia coli LM625 harboring GyrA S83L/D87N double mutant to MIC for wild type Escherichia coli LM179; type: functional
# [21] = test system: Escherichia coli; assay: Selectivity ratio of MIC for Escherichia coli LM367 harboring delta marR/delta acrR double mutant to MIC for wild type Escherichia coli LM179; type: functional
# [22] = test system: Escherichia coli; assay: Selectivity ratio of MIC for Escherichia coli LM693 harboring GyrA S83L/D87N double mutant/ParC S80I mutant to MIC for wild type Escherichia coli LM179; type: functional
# [23] = test system: Escherichia coli; assay: Selectivity ratio of MIC for Escherichia coli LM705 harboring GyrA S83L/D87N double mutant/ParC S80I mutant/delta marR/delta acrR double mutant to MIC for wild type Escherichia coli LM179; type: functional
# [24] = test system: Escherichia coli; assay: Selectivity ratio of MIC for Escherichia coli CH440 harboring GyrA S83L/D87N double mutant/ParC S80I E84V double mutant/aac(6')-lb-cr to MIC for wild type Escherichia coli LM179; type: functional
# [25] = test system: Escherichia coli; assay: Selectivity ratio of MIC for Escherichia coli CH460 harboring GyrA S83L/D87N double mutant/ParC S80I E84V double mutant/qepA to MIC for wild type Escherichia coli LM179; type: functional
# [26] = test system: Escherichia coli; assay: Selectivity ratio of MIC for Escherichia coli CH418 harboring GyrA S83L/D87N double mutant/ParC S80I E84G double mutant/qnrA to MIC for wild type Escherichia coli LM179; type: functional
# [27] = test system: Escherichia coli; assay: Selectivity ratio of MIC for Escherichia coli CH448 harboring GyrA S83L mutant/qnrS to MIC for wild type Escherichia coli LM179; type: functional
structure (smiles),measurement,setting,value
O=C(O)c1cn(C2CC2)c2cc(N3CCNCC3)c(F)cc2c1=O [CIPROFLOXACIN],MIC,[1],0.25 µg/mL
same,MIC,[2],1 µg/mL
same,MIC,[3],0.25 µg/mL
same,IC50,[4],> 128 µg/mL
same,MIC,[5],64 µg/mL
same,MIC,[6],> 64 µg/mL
same,MIC,[7],> 64 µg/mL
same,MIC,[8],64 µg/mL
CCc1c(-c2cccc(N3CCC(CNC)C3)c2)[nH]c(=O)c2c(=O)[nH]sc12 (configuration not stated),MIC,[9],> 64 µg/mL
same,MIC,[1],> 64 µg/mL
same,MIC,[2],> 64 µg/mL
same,MIC,[3],64 µg/mL
same,MIC,[10],> 64 µg/mL
same,MIC,[11],8 µg/mL
CCc1c(-c2ccc(N3CCC(NC)C3)cc2)[nH]c(=O)c2c(=O)[nH]sc12 (configuration not stated),MIC,[9],16 µg/mL
same,MIC,[1],2 µg/mL
same,MIC,[2],0.06 µg/mL
same,MIC,[3],0.12 µg/mL
same,MIC,[10],0.008 µg/mL
same,MIC,[11],0.001 µg/mL
same,IC50,[4],> 128 µg/mL
same,logD,[12],1.2
same,inhibition at 100 µM,[13],34%
CCc1c(-c2ccc(N3CCC(N(C)C)C3)cc2)[nH]c(=O)c2c(=O)[nH]sc12 (racemic),MIC,[14],0.5 µg/mL
same,MIC,[15],4 µg/mL
same,MIC,[9],2 µg/mL
same,MIC,[1],4 µg/mL
same,MIC,[2],1 µg/mL
same,MIC,[3],1 µg/mL
same,MIC,[10],0.25 µg/mL
same,MIC,[11],0.03 µg/mL
same,IC50,[4],> 128 µg/mL
same,logD,[12],1.4
same,inhibition at 100 µM,[13],84%
same,pIC50,[16],4.70
same,MIC,[17],2 µg/mL
same,MIC,[18],8 µg/mL
same,MIC,[5],64 µg/mL
same,MIC,[6],16 µg/mL
same,MIC,[7],16 µg/mL
same,MIC,[8],16 µg/mL
same,MIC,[19],16 µg/mL
same,Selectivity ratio,[20],8
same,Selectivity ratio,[21],4
same,Selectivity ratio,[22],16
same,Selectivity ratio,[23],128
same,Selectivity ratio,[24],32
same,Selectivity ratio,[25],32
same,Selectivity ratio,[26],32
same,Selectivity ratio,[27],32
CCc1c(-c2ccc(N3CC[C@H](N(C)C)C3)cc2)[nH]c(=O)c2c(=O)[nH]sc12,MIC,[9],1 µg/mL
same,MIC,[1],4 µg/mL
same,MIC,[2],1 µg/mL
same,MIC,[3],0.5 µg/mL
same,MIC,[10],0.015 µg/mL
same,MIC,[11],0.001 µg/mL
CCc1c(-c2cccc(N3CCC(N(C)C)C3)c2)[nH]c(=O)c2c(=O)[nH]sc12 (configuration not stated),MIC,[9],64 µg/mL
same,MIC,[1],> 128 µg/mL
same,MIC,[2],> 128 µg/mL
same,MIC,[3],32 µg/mL
same,MIC,[10],> 64 µg/mL
same,MIC,[11],8 µg/mL
CCc1c(-c2ccc(N3CCNCC3)cc2)[nH]c(=O)c2c(=O)[nH]sc12,MIC,[9],> 64 µg/mL
same,MIC,[1],64 µg/mL
same,MIC,[2],16 µg/mL
same,MIC,[3],8 µg/mL
same,MIC,[10],4 µg/mL
same,MIC,[11],0.5 µg/mL
CCc1c(-c2ccc(N3CC[C@H](O)C3)cc2)[nH]c(=O)c2c(=O)[nH]sc12,MIC,[9],32 µg/mL
same,MIC,[1],4 µg/mL
same,MIC,[2],0.5 µg/mL
same,MIC,[3],0.12 µg/mL
same,MIC,[10],0.25 µg/mL
same,MIC,[11],0.03 µg/mL
same,IC50,[4],> 16 µg/mL
same,logD,[12],1.5
same,inhibition at 100 µM,[13],22%
CCc1c(-c2ccc(N3CC[C@@H](O)C3)cc2)[nH]c(=O)c2c(=O)[nH]sc12,MIC,[9],16 µg/mL
same,MIC,[1],2 µg/mL
same,MIC,[2],1 µg/mL
same,MIC,[3],0.015 µg/mL
same,MIC,[10],0.12 µg/mL
same,MIC,[11],0.008 µg/mL
CCc1c(-c2ccc(N3C[C@@H]4CCN(C)[C@@H]4C3)cc2)[nH]c(=O)c2c(=O)[nH]sc12,MIC,[9],8 µg/mL
same,MIC,[1],8 µg/mL
same,MIC,[2],8 µg/mL
same,MIC,[3],4 µg/mL
same,MIC,[10],0.5 µg/mL
same,MIC,[11],0.06 µg/mL
CCc1c(-c2ccc(N3CCC(N(C)C)CC3)cc2)[nH]c(=O)c2c(=O)[nH]sc12,MIC,[9],> 64 µg/mL
same,MIC,[1],> 64 µg/mL
same,MIC,[2],64 µg/mL
same,MIC,[3],16 µg/mL
same,MIC,[10],16 µg/mL
same,MIC,[11],0.5 µg/mL
CCc1c(-c2ccc(N3CCC(F)(F)C3)cc2)[nH]c(=O)c2c(=O)[nH]sc12,MIC,[9],> 64 µg/mL
same,MIC,[1],> 64 µg/mL
same,MIC,[2],4 µg/mL
same,MIC,[3],0.12 µg/mL
same,MIC,[10],0.5 µg/mL
same,MIC,[11],0.12 µg/mL
CCc1c(-c2ccc(N3CC[C@@H](N(C)C)C3)cc2)[nH]c(=O)c2c(=O)[nH]sc12,MIC,[9],4 µg/mL
same,MIC,[1],8 µg/mL
same,MIC,[2],1 µg/mL
same,MIC,[3],2 µg/mL
same,MIC,[10],0.5 µg/mL
same,MIC,[11],0.03 µg/mL
CCc1c(-c2ccc(N3C[C@@H]4CCCN[C@@H]4C3)cc2)[nH]c(=O)c2c(=O)[nH]sc12,MIC,[9],8 µg/mL
same,MIC,[1],4 µg/mL
same,MIC,[2],1 µg/mL
same,MIC,[3],1 µg/mL
same,MIC,[10],0.5 µg/mL
same,MIC,[11],0.008 µg/mL
CCc1c(-c2ccc(N3CCC(N)C3)cc2)[nH]c(=O)c2c(=O)[nH]sc12 (configuration not stated),MIC,[9],64 µg/mL
same,MIC,[1],4 µg/mL
same,MIC,[2],0.06 µg/mL
same,MIC,[3],0.12 µg/mL
same,MIC,[10],0.002 µg/mL
same,MIC,[11],≤ 0.0001 µg/mL
CCc1c(-c2ccc(N3CCC(CNC)C3)cc2)[nH]c(=O)c2c(=O)[nH]sc12 (configuration not stated),MIC,[9],> 128 µg/mL
same,MIC,[1],32 µg/mL
same,MIC,[2],2 µg/mL
same,MIC,[3],2 µg/mL
same,MIC,[10],1 µg/mL
same,MIC,[11],0.008 µg/mL
CCc1c(-c2ccc(Cl)cc2)[nH]c(=O)c2c(=O)[nH]sc12,MIC,[9],16 µg/mL
same,MIC,[1],128 µg/mL
same,MIC,[2],> 128 µg/mL
same,MIC,[3],8 µg/mL
same,MIC,[10],16 µg/mL
same,MIC,[11],0.25 µg/mL
CCc1c(-c2ccc3c(cnn3C)c2)[nH]c(=O)c2c(=O)[nH]sc12,MIC,[14],0.5 µg/mL
same,MIC,[15],8 µg/mL
same,MIC,[9],2 µg/mL
same,MIC,[1],16 µg/mL
same,MIC,[2],4 µg/mL
same,MIC,[3],0.12 µg/mL
same,MIC,[10],0.5 µg/mL
same,MIC,[11],0.004 µg/mL
same,MIC,[17],4 µg/mL
same,MIC,[18],16 µg/mL
same,MIC,[5],> 64 µg/mL
same,MIC,[6],16 µg/mL
same,MIC,[7],16 µg/mL
same,MIC,[8],16 µg/mL
same,MIC,[19],16 µg/mL
same,Selectivity ratio,[20],16
same,Selectivity ratio,[21],8
same,Selectivity ratio,[22],32
same,Selectivity ratio,[23],>128
same,Selectivity ratio,[24],32
same,Selectivity ratio,[25],32
same,Selectivity ratio,[26],32
same,Selectivity ratio,[27],32
CCc1c(-c2cccc(N3CCC(NC)C3)c2)[nH]c(=O)c2c(=O)[nH]sc12 (configuration not stated),MIC,[9],> 128 µg/mL
same,MIC,[1],> 128 µg/mL
same,MIC,[2],> 128 µg/mL
same,MIC,[3],32 µg/mL
CCc1c(-c2ccc(N3CCC(NC)CC3)cc2)[nH]c(=O)c2c(=O)[nH]sc12,MIC,[9],> 64 µg/mL
same,MIC,[1],> 64 µg/mL
same,MIC,[2],64 µg/mL
same,MIC,[3],16 µg/mL
same,MIC,[10],32 µg/mL
same,MIC,[11],1 µg/mL
CCc1c(-c2ccc(N3C[C@@H]4CCCN(C)[C@@H]4C3)cc2)[nH]c(=O)c2c(=O)[nH]sc12,MIC,[14],4 µg/mL
same,MIC,[15],16 µg/mL
same,MIC,[9],64 µg/mL
same,MIC,[1],64 µg/mL
same,MIC,[2],32 µg/mL
same,MIC,[3],4 µg/mL
same,MIC,[10],4 µg/mL
same,MIC,[11],1 µg/mL
same,MIC,[17],16 µg/mL
same,MIC,[18],> 64 µg/mL
same,MIC,[5],> 64 µg/mL
same,MIC,[6],> 64 µg/mL
same,MIC,[7],64 µg/mL
same,MIC,[8],64 µg/mL
same,MIC,[19],32 µg/mL
same,Selectivity ratio,[20],4
same,Selectivity ratio,[21],4
same,Selectivity ratio,[22],>16
same,Selectivity ratio,[23],>16
same,Selectivity ratio,[24],>16
same,Selectivity ratio,[25],16
same,Selectivity ratio,[26],16
same,Selectivity ratio,[27],8
